Results: article PMC11945486, “TAS1R2/TAS1R3 Single-Nucleotide Polymorphisms Affect Sweet Taste Receptor Activation by Sweeteners: The SWEET Project” (Nutrients, 2025)

Target: T1, human TAS1R2-I191V (subunit alone) (Homo sapiens, UniProt Q8TE23, I191V)
T1 construct: expressed in transfected cells; host or cells: HEK293T-Gα16gust44
T1 sequence (Q8TE23 20-839 I191V): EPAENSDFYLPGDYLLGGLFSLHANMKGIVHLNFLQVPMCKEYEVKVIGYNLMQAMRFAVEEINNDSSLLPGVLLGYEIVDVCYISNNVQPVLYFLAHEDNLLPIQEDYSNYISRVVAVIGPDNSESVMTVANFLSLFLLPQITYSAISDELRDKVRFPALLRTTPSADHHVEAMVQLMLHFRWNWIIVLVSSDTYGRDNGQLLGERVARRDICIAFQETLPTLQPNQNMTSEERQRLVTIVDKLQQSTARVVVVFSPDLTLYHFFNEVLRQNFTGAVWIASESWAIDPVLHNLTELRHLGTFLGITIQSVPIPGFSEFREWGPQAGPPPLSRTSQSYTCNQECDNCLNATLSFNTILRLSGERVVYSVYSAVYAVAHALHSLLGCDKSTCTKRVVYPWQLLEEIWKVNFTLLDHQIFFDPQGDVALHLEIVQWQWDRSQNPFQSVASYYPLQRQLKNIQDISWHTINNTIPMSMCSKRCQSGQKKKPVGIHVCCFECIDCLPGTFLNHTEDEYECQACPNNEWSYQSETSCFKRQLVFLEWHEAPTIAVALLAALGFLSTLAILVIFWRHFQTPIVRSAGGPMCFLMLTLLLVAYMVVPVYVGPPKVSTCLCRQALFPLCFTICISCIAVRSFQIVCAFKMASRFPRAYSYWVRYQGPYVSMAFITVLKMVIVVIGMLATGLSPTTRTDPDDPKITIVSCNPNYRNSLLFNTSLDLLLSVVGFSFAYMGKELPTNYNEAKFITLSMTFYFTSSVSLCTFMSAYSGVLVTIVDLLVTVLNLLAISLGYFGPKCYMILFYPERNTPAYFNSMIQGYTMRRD
Assay: Calcium mobilisation assay, TAS1R2-I191V subunit alone
Assay type: cell-based
Description: The coding sequences for TAS1R2 and TAS1R3 were commercially synthesised, and the human codon was optimised for expression in human cells. The coding sequences of human TAS1R2 and TAS1R3 were subcloned and inserted into the mammalian expression vectors pcDNA6/myc-HisA and pcDNA4/myc-HisA (Invitrogen; Thermo Fisher Scientific; Illkirch, France) between the EcoRI and NotI restriction sites, generating the plasmids pcDNA6-TAS1R2 and pcDNA4-TAS1R3, respectively. To increase protein expression in mammalian cells, an upstream start codon was used, which was a sequence called MAX, corresponding to the QBI SP163 element also described in pcDNA4-HisMax (Invitrogen; Thermo Fisher Scientific; Illkirch, France). To measure the expression level of the receptor by immunohistochemistry, we used the FLAG sequence ([…]) in the C-terminal position, which encodes the FLAG tag epitope. […]
The HEK293T cells were kindly provided by Jay P. Slack (Givaudan Flavors Corporation; Cincinnati, OH, USA). […] The fluorescence intensity was measured for 90 s (excitation 488 nm, emission 510 nm) in an automated fluorometric FlexStation®3 Multi-Mode microplate reader (Molecular Devices; San Jose, CA, USA). […] The Ca^2+ changes were expressed as fractional changes in fluorescent light intensity: ΔF/F = (F − F0)/F0, where F was the fluorescent light intensity at each point, and F0 was the value of emitted fluorescent light prior to stimulus application. To calculate dose–response relationships, the changes in fluorescence upon stimulus application were averaged, mock-subtracted and baseline-corrected. […] The half-maximal effective concentrations (EC50 values) and maximal signal amplitudes were calculated using SigmaPlot software (version 15.0) (Systat Software; San Jose, CA, USA).
For in vitro calcium mobilisation assay performed on hTAS1R2-SNPs, hTAS1R3-SNPs and mTAS1R3-I60T, 6 to 7 concentrations were tested for each sweet compound, plus buffer alone. All concentration–receptor combinations were measured in duplicate, and each experiment was repeated at least 4 times (8 wells/concentration). […]

## C=C(C)[C@@H]1CC=C(/C=N/O)CC1 [Perillartine, perillartine]
  EC50: 390 ± 47 µM
  R1 = Variant EC50/WT EC50: 4.3
Maximal signal amplitude
  Max ΔF/F0: 0.19 ± 0.01
